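Values below derive from 48-hour exposures of cells grown in 96-well plates, with endpoints linearly interpolated between the two concentrations bracketing the appropriate inhibition level. GI50 marks 50% less growth. Definition used: TGI = concentration required for complete inhibition of growth.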

Among the test systems are CCRF-CEM leukemia; KM12 colon; A498 renal; RPMI-8226 leukemia; HCT-15 colon; SK-MEL-28 melanoma; NCI-H522 lung; CAKI-1 renal; SK-MEL-5 melanoma; SR leukemia.
Assay in all cases: DTP human tumour cell line panel, 48 h

What is called GI50 is the concentration giving 50% growth inhibition. Usually TGI stands for the concentration at which net growth stops. High values mean less potent growth arrest, low ones more potent growth arrest. For the compound `C[C@@H](Oc1cc(-n2cnc3ccc(OCC4CCN(C)CC4)cc32)sc1C(N)=O)c1ccccc1C(F)(F)F`, the GI50 is 0.0673 µM with CCRF-CEM leukemia; 0.0671 µM in the experiment on KM12 colon; 0.295 µM with A498 renal; 0.133 µM with RPMI-8226 leukemia; 0.126 µM in the experiment on HCT-15 colon; 0.637 µM in the experiment on SK-MEL-28 melanoma. Also, the results for the GI50 with NCI-H522 lung, in the experiment with CAKI-1 renal and in the experiment on SK-MEL-5 melanoma were 0.0472 µM, 1.91 µM and 0.217 µM, respectively. The TGI in the experiment with CCRF-CEM leukemia is 3.3 µM; in the experiment with KM12 colon, 0.991 µM; in the experiment on A498 renal, 1.56 µM; in the experiment on RPMI-8226 leukemia, 5.89 µM; in the experiment on HCT-15 colon, 3.2 µM; in the experiment on SK-MEL-28 melanoma, 4.58 µM. Besides, the total growth inhibition concentration (TGI) with NCI-H522 lung turned out to be 0.236 µM; in the experiment with CAKI-1 renal, 5.23 µM; in the experiment with SK-MEL-5 melanoma, 2.95 µM.
As for `CCOC(=O)C12CN(C34CC5CC(CC(C5)C3)C4)CC(C(=O)OCC)(C1=O)C(c1ccccc1)OC2c1ccccc1` (centres undefined), the TGI in the experiment on CCRF-CEM leukemia, in the experiment on KM12 colon, in the experiment with A498 renal, in the experiment on RPMI-8226 leukemia, in the experiment with HCT-15 colon and in the experiment on SK-MEL-28 melanoma was greater than 100 µM in each case. Moreover, in the experiment with SK-MEL-5 melanoma, the TGI is greater than 100 µM.
With `c1ccc(CNc2nc(Nc3ccc(-c4nc5ccccc5[nH]4)cc3)c3cn[nH]c3n2)cc1`, the GI50 is 3.62 µM in the experiment on CCRF-CEM leukemia; 1.9 µM in the experiment with KM12 colon; 2.93 µM in the experiment on A498 renal; 2.15 µM with RPMI-8226 leukemia; 1.89 µM in the experiment on HCT-15 colon; 2.15 µM in the experiment on SK-MEL-28 melanoma. The values for the GI50 in the experiment with NCI-H522 lung, in the experiment on CAKI-1 renal and with SK-MEL-5 melanoma were 2.24 µM, 2.13 µM and 1.74 µM, respectively. Also, the TGI in the experiment with CCRF-CEM leukemia was greater than 100 µM; with KM12 colon, 4.87 µM; in the experiment with A498 renal it was 8.22 µM; in the experiment with RPMI-8226 leukemia it was 5.51 µM; in the experiment on HCT-15 colon, 7.65 µM; in the experiment with SK-MEL-28 melanoma, 6.68 µM. Also, the results for the TGI in the experiment with NCI-H522 lung, with CAKI-1 renal and with SK-MEL-5 melanoma were 5.68 µM, 5.47 µM and 3.3 µM, respectively.
Take `CCCCCNC(=O)C1C(=O)N(CCCCC)C(=O)/C1=N\N` (centres undefined): the TGI in the experiment on CCRF-CEM leukemia, in the experiment with KM12 colon, in the experiment on A498 renal, in the experiment with HCT-15 colon, in the experiment with SK-MEL-28 melanoma and with NCI-H522 lung was greater than 100 µM throughout. The TGI in the experiment on SK-MEL-5 melanoma is greater than 100 µM.
For the compound `CC1=C(C(=O)Nc2cc(F)c(F)cc2F)C(c2cccc([N+](=O)[O-])c2)C(C(=O)Nc2ccccc2C(F)(F)F)=C(C)N1` (centres undefined), the TGI with CCRF-CEM leukemia was 55.1 µM; with KM12 colon, 47.4 µM; in the experiment with A498 renal it was 45 µM; in the experiment with RPMI-8226 leukemia, 37.4 µM; in the experiment with SK-MEL-28 melanoma, 62.2 µM; in the experiment with NCI-H522 lung it was 34.7 µM. The TGI worked out at 49.6 µM in the experiment on CAKI-1 renal and 63.9 µM in the experiment with SK-MEL-5 melanoma.
On to `NC(=NCc1ccccc1)N/N=C\c1ccnc2ccccc12`, for which the TGI in the experiment with CCRF-CEM leukemia came out at 76.3 µM; in the experiment with SR leukemia, 4.98 µM; in the experiment on KM12 colon it was 47.9 µM; in the experiment with A498 renal it was 25.2 µM; with RPMI-8226 leukemia, 4.14 µM; in the experiment with HCT-15 colon, 37.4 µM. Further, the total growth inhibition concentration (TGI) in the experiment on SK-MEL-28 melanoma was determined as 25.1 µM; with SK-MEL-5 melanoma, 20 µM.
`O=C1c2cccnc2-c2nc(-c3ccccc3)cc3c2c1nc1ccccc13`: the GI50 with CCRF-CEM leukemia is 2.98 µM; in the experiment on KM12 colon it was 4.61 µM; in the experiment with A498 renal it was 17.1 µM; in the experiment with RPMI-8226 leukemia it was 0.21 µM; in the experiment on HCT-15 colon, 1.13 µM; with SK-MEL-28 melanoma it was 14.8 µM. Also, the GI50 in the experiment with NCI-H522 lung is 0.714 µM; with CAKI-1 renal, 6.67 µM; in the experiment with SK-MEL-5 melanoma it was 1.27 µM. For the same compound, the concentration for total growth inhibition (TGI) came to 29.7 µM with CCRF-CEM leukemia; 16.1 µM in the experiment on KM12 colon; 31.2 µM in the experiment on A498 renal; 5.02 µM in the experiment with HCT-15 colon; 29.8 µM in the experiment on SK-MEL-28 melanoma; 3.06 µM in the experiment on NCI-H522 lung. For the same compound, the TGI in the experiment with CAKI-1 renal turned out to be 17.5 µM; in the experiment on SK-MEL-5 melanoma, 3.88 µM.
Consider `COc1ccc(C=O)c(N(C)C(=O)C(C)(C)C)c1`, for which the TGI in the experiment on CCRF-CEM leukemia, with KM12 colon, in the experiment with A498 renal, in the experiment on RPMI-8226 leukemia, in the experiment on HCT-15 colon and in the experiment with SK-MEL-28 melanoma was greater than 100 µM throughout. In addition, the TGI in the experiment on NCI-H522 lung and in the experiment on SK-MEL-5 melanoma was greater than 100 µM in each case.
On to `COC(=O)CC(CC(=O)C(=O)OC)C(=O)OC` (centres undefined), for which the TGI in the experiment on CCRF-CEM leukemia, in the experiment on KM12 colon, in the experiment on A498 renal, with RPMI-8226 leukemia, with HCT-15 colon and in the experiment on SK-MEL-28 melanoma was greater than 100 µM throughout. The total growth inhibition concentration (TGI) in the experiment on CAKI-1 renal and in the experiment with SK-MEL-5 melanoma was greater than 100 µM throughout.
With `O=C1/C(=C/c2ccccc2Cl)COc2ccccc21`, the TGI in the experiment with CCRF-CEM leukemia was 33.7 µM; in the experiment with KM12 colon, 34.9 µM; in the experiment with A498 renal it was 32.4 µM; in the experiment with RPMI-8226 leukemia it was 22 µM; in the experiment on SK-MEL-28 melanoma it was 30.1 µM; with NCI-H522 lung, 30.5 µM.
Take `C=C(CNCCc1ccc(O)cc1)[C@@H]1CC[C@]2(CO)CC[C@]3(C)[C@H](CC[C@@H]4[C@@]5(C)CCC(NCCO)C(C)(C)[C@@H]5CC[C@]43C)[C@@H]12` (some centres undefined): the GI50 in the experiment on CCRF-CEM leukemia was 0.433 µM; in the experiment with KM12 colon, 1.66 µM; with A498 renal, 1.72 µM; with RPMI-8226 leukemia it was 1.43 µM; in the experiment with HCT-15 colon, 1.57 µM; in the experiment on SK-MEL-28 melanoma, 1.81 µM. Also, the figures for the GI50 with NCI-H522 lung, in the experiment with CAKI-1 renal and with SK-MEL-5 melanoma were 1.81 µM, 1.65 µM and 1.73 µM, respectively. In addition, the total growth inhibition concentration (TGI) with CCRF-CEM leukemia came out at 1.92 µM; in the experiment on KM12 colon, 3.16 µM; in the experiment on A498 renal, 3.72 µM; in the experiment with RPMI-8226 leukemia, 4 µM; in the experiment on HCT-15 colon, 3.37 µM; in the experiment on SK-MEL-28 melanoma, 3.38 µM. The values for the total growth inhibition concentration (TGI) with NCI-H522 lung, in the experiment on CAKI-1 renal and in the experiment on SK-MEL-5 melanoma were 3.56 µM, 3.29 µM and 3.21 µM, respectively.
As for `Cc1ccc(NC(=O)CCC(=O)C2CC(=O)CCC2=O)cc1C` (centres undefined), the total growth inhibition concentration (TGI) in the experiment with CCRF-CEM leukemia, in the experiment on KM12 colon, in the experiment with HCT-15 colon, with SK-MEL-28 melanoma, with CAKI-1 renal and in the experiment on SK-MEL-5 melanoma was greater than 100 µM each time.

For the origin of these results see PubChem BioAssay (NCI).
